Consider 2 compounds from the NIST ThermoML archive (doi:10.1016/j.fluid.2014.12.001).

Molecules are shown by their SMILES. Numbers after ± are expanded uncertainties.

The conditions of series [1]: Crystal; visual observation.
A short description of series [2]: Molar enthalpy of transition or fusion. The following applies: Crystal; DSC.

In the case of `Oc1cccc2ccccc12` [1-naphthol], the Normal melting temperature in series [1] turned out to be 95.10 ± 1.1 °C. Further, the “Molar enthalpy of transition or fusion” value in series [2] was 5.2 ± 0.237 kcal/mol.
In the same order, the values of `Nc1ccccc1[N+](=O)[O-]` [2-nitroaniline] are 69.7 ± 1.1 °C and 4.6 ± 0.21 kcal/mol.
